Test results reported in ChEMBL document CHEMBL1201862, “PubChem BioAssay data set” (2004).
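Assay format: 96-well plates, 48-hour exposure. Abbreviation: GI50, concentration required for 50% inhibition of growth.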 Calls of active or inactive are those of the source. No stated cut-off is given here; in the data, active = GI50 up to about 1.1 µM and inactive = higher.

Legend:
Assay in all cases: NCI-60 cell line screen, 48 h
786-0 = tested on: 786-0
A549 = tested on: A549
HCT-116 = tested on: HCT-116
Hs-578T = tested on: Hs-578T
K562 = tested on: K562
LOX IMVI = tested on: LOX IMVI
MCF7 = tested on: MCF7
MDA-MB-231 = tested on: MDA-MB-231
OVCAR-4 = tested on: OVCAR-4
OVCAR-8 = tested on: OVCAR-8
PC-3 = tested on: PC-3
RXF 393 = tested on: RXF 393
SN12C = tested on: SN12C
SNB-19 = tested on: SNB-19
SNB-75 = tested on: SNB-75
SR = tested on: SR
U-251 = tested on: U-251
UACC-257 = tested on: UACC-257
UACC-62 = tested on: UACC-62
UO-31 = tested on: UO-31

SMILES	GI50 (786-0)	GI50 (A549)	GI50 (HCT-116)	GI50 (Hs-578T)	GI50 (K562)	GI50 (LOX IMVI)	GI50 (MCF7)	GI50 (MDA-MB-231)	GI50 (OVCAR-4)	GI50 (OVCAR-8)	GI50 (PC-3)	GI50 (RXF 393)	GI50 (SN12C)	GI50 (SNB-19)	GI50 (SNB-75)	GI50 (SR)	GI50 (U-251)	GI50 (UACC-257)	GI50 (UACC-62)	GI50 (UO-31)
CN(C)CCCc1cccnc1	> 100 µM (inactive)	> 100 µM (inactive)	> 100 µM (inactive)	> 100 µM (inactive)	> 100 µM (inactive)	> 100 µM (inactive)	> 100 µM (inactive)	> 100 µM (inactive)	> 100 µM (inactive)	> 100 µM (inactive)	> 100 µM (inactive)	> 100 µM (inactive)	> 100 µM (inactive)	> 100 µM (inactive)	41.7 µM (inactive)	> 100 µM (inactive)	> 100 µM (inactive)	> 100 µM (inactive)	> 100 µM (inactive)	> 100 µM (inactive)
C=C1[C@@H](C)[C@H]2[C@H](Cc3ccccc3)NC(=O)[C@]23OC(=O)/C=C/[C@H](O)CCC[C@@H](C)C/C=C/[C@H]3[C@@H]1O	7.62 µM (inactive)	2.85 µM (inactive)	8.41 µM (inactive)	5.89 µM (inactive)	9.18 µM (inactive)	0.486 µM (active)	16.6 µM (inactive)	5.31 µM (inactive)	8.67 µM (inactive)	5.43 µM (inactive)	3.76 µM (inactive)	0.94 µM (active)	3.87 µM (inactive)	5.66 µM (inactive)	0.0748 µM (active)	> 100 µM (inactive)	2.08 µM (inactive)	9.62 µM (inactive)	22.8 µM (inactive)	0.258 µM (active)
Nc1nc(N)c(Cn2ccnc2)c(O)n1	> 100 µM (inactive)	> 100 µM (inactive)	> 100 µM (inactive)	> 100 µM (inactive)	0.049 µM (active)	> 100 µM (inactive)	> 100 µM (inactive)	> 100 µM (inactive)	> 100 µM (inactive)	> 100 µM (inactive)	> 100 µM (inactive)	> 100 µM (inactive)	5.15 µM (inactive)	> 100 µM (inactive)	> 100 µM (inactive)	> 100 µM (inactive)	> 100 µM (inactive)	> 100 µM (inactive)	> 100 µM (inactive)	> 100 µM (inactive)
N=C(N)NS(=O)(=O)c1ccc(NC(=O)c2ccc3nc4ccccc4c(Nc4ccc(S(=O)(=O)N=C(N)N)cc4)c3c2)cc1	> 100 µM (inactive)	> 100 µM (inactive)	> 100 µM (inactive)	> 100 µM (inactive)	> 100 µM (inactive)	61.8 µM (inactive)	> 100 µM (inactive)	> 100 µM (inactive)	> 100 µM (inactive)	> 100 µM (inactive)	> 100 µM (inactive)	> 100 µM (inactive)	> 100 µM (inactive)	> 100 µM (inactive)	> 100 µM (inactive)	> 100 µM (inactive)	> 100 µM (inactive)	> 100 µM (inactive)	30.1 µM (inactive)	> 100 µM (inactive)
CC(C)(C)c1cc(C(C)(C)C)c2c(c1O)OC(=O)CS2	6.07 µM (inactive)	3.59 µM (inactive)	3.6 µM (inactive)	2.84 µM (inactive)	3.16 µM (inactive)	8.47 µM (inactive)	3.82 µM (inactive)	16.2 µM (inactive)	5.28 µM (inactive)	5.98 µM (inactive)	7.24 µM (inactive)	3.61 µM (inactive)	5.79 µM (inactive)	5.2 µM (inactive)	1.15 µM (inactive)	4.56 µM (inactive)	4.78 µM (inactive)	13.9 µM (inactive)	2.2 µM (inactive)	5.73 µM (inactive)
